Results as given in patent US8822467B2 (Ligand Pharmaceuticals Inc., priority 2009, dated 2014).
pIC50: −log10 of the molar value.

Target: T1, human CRTH2 (Homo sapiens, UniProt Q9Y5Y4)
T1 construct: expressed in transfected cells
T1 sequence (Q9Y5Y4 1-395): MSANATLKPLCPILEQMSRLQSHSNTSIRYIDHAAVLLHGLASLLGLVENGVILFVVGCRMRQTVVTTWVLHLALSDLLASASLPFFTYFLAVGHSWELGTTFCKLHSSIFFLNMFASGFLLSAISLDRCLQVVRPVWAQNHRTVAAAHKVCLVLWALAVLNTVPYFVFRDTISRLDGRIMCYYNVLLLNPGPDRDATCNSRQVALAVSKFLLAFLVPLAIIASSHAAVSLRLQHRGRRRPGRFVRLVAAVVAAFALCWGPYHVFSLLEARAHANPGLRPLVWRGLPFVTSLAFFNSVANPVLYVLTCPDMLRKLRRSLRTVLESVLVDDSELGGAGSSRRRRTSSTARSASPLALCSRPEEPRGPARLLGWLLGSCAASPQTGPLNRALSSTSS
Assay: [35S]GTPγS binding assay (SPA) on membranes from CHO-K1 cells stably expressing human CRTH2, stimulated with 60 nM DHK-PGD2
Type: biochemical
Settings: membranes of CHO-K1 cells expressing human CRTH2; 60 nM DHK-PGD2; Table 1; read-out: CRTH2 hGTPγS IC50
Outline: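 Read-out is scintillation proximity: bound [35S]GTPγS (500 pM, with 10 μM GDP) was counted 4 h after centrifuging a 2 h ambient-temperature incubation. Reactions held 4 μg human CRTH2 CHO-K1 membrane protein, 60 nM DHK-PGD2 agonist and test compounds at increasing concentrations. Buffer: 20 mM HEPES pH 7.4, 10 mM MgCl2, 300 mM NaCl, 0.2% BSA, 1% DMSO.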

Row | pIC50 | Structure (SMILES)
1 | 7.72 | CN(Cc1ccc(OCC(=O)O)c(-c2ccc3nonc3c2)c1)S(=O)(=O)c1ccc(F)cc1 [Example 187, 2-(5-benzo[c][1,2,5]oxadiazolyl)-4-((4-fluoro-N-methylphenylsulfonamido)methyl)phenoxyacetic acid]
2 | 7.37 | CN(Cc1ccc(OCC(=O)O)c(-c2cccc(C#N)c2)c1)S(=O)(=O)c1cc(F)cc(F)c1 [Example 97, 2-(3-cyanophenyl)-4-((3,5-difluoro-N-methylphenylsulfonamido)methyl)phenoxyacetic acid]
3 | 8.68 | COc1cc(F)cc(-c2cc(CN(C)S(=O)(=O)c3ccc(F)c(F)c3)ccc2OCC(=O)O)c1 [Example 46, 2-(3-fluoro-5-methoxyphenyl)-4-((3,4-difluoro-N-methylphenylsulfonamido)methyl)phenoxyacetic acid]
4 | 8.47 | CN(Cc1ccc(OCC(=O)O)c(-c2cc(F)cc(F)c2)c1)S(=O)(=O)c1ccc(Cl)c(Cl)c1 [Example 51, 2-(3,5-difluorophenyl)-4-((3,4-dichloro-N-methylphenylsulfonamido)methyl)phenoxyacetic acid]

Same assay, conditions: potency class symbols; Table 2; read-out: CRTH2 hGTPγS IC50

Row | pIC50 | Structure (SMILES)
5 | 6.00 to 7.00 | CCN(Cc1ccc(OCC(=O)O)c(-c2cccc(C(F)(F)F)c2)c1)S(=O)(=O)c1ccc(F)c(F)c1 [Example 113, 2-(3-trifluoromethylphenyl)-4-((3,4-difluoro-N-ethylphenylsulfonamido)methyl)phenoxyacetic acid]
6 | 6.00 to 7.00 | CN(Cc1ccc(OCC(=O)O)c(-c2cc(F)cc(F)c2)c1)S(=O)(=O)c1ccc(F)cc1 [Example 106, 2-(3,5-difluorophenyl)-4-((4-fluoro-N-methylphenylsulfonamido)methyl)phenoxyacetic acid]
7 | 6.00 to 7.00 | CN(Cc1ccc(OCC(=O)O)c(-c2cccc(C(F)(F)F)c2)c1)S(=O)(=O)c1cc(F)cc(F)c1 [Example 137, 2-(3-trifluoromethylphenyl)-4-((3,5-difluoro-N-methylphenylsulfonamido)methyl)phenoxyacetic acid]
8 | 6.00 to 7.00 | CN(Cc1ccc(OCC(=O)O)c(-c2cccc(C(F)(F)F)c2)c1)S(=O)(=O)c1ccc(F)cc1F [Example 107, 2-(3-trifluoromethylphenyl)-4-((2,4-difluoro-N-methylphenylsulfonamido)methyl)phenoxyacetic acid]
9 | > 7.00 | CN(Cc1cc(-c2cccc(C#N)c2)c(OCC(=O)O)cc1F)S(=O)(=O)c1ccccc1 [Example 98, 2-(3-cyanophenyl)-4-((N-methylphenylsulfonamido)methyl)-5-fluorophenoxyacetic acid]
10 | > 7.00 | CN(Cc1ccc(OCC(=O)O)c(-c2cncc(S(C)(=O)=O)c2)c1)S(=O)(=O)c1ccc(F)cc1 [Example 75, 2-(3-methylsulfonyl-5-pyridinyl)-4-((4-fluoro-N-methylphenylsulfonamido)methyl)phenoxyacetic acid]
11 | 5.00 to 6.00 | Cc1noc(C)c1-c1cc(CN(C)S(=O)(=O)c2ccc(F)cc2)ccc1OCC(=O)O [Example 171, 2-(3,5-dimethylisoxazol-4-yl)-4-((4-fluoro-N-methylphenylsulfonamido)methyl)phenoxyacetic acid]
12 | > 7.00 | CN(Cc1cc(-c2cc(F)cc(C#N)c2)c(OCC(=O)O)cc1F)S(=O)(=O)c1ccc(Cl)c(Cl)c1 [Example 211, 2-(3-cyano-5-fluoro-phenyl)-4-((3,4-dichloro-N-methylphenylsulfonamido)methyl)-5-fluorophenoxyacetic acid]
13 | 5.00 to 6.00 | CN(Cc1ccc(OCC(=O)O)c(-c2cccc(Cl)c2)c1)S(=O)(=O)c1ccccc1 [Example 167, 2-(3-chlorophenyl)-4-((N-methylphenylsulfonamido)methyl)phenoxyacetic acid]
14 | 6.00 to 7.00 | CN(Cc1ccc(OCC(=O)O)c(-c2cc(F)cc(Cl)c2)c1)S(=O)(=O)c1ccccc1 [Example 150, 2-(3-chloro-5-fluorophenyl)-4-((-N-methylphenylsulfonamido)methyl)phenoxyacetic acid]
15 | > 7.00 | COc1cc(F)cc(-c2cc(CN(C)S(=O)(=O)c3ccc(F)cc3)ccc2OCC(=O)O)c1 [Example 96, 2-(3-methoxy-5-fluorophenyl)-4-((4-fluoro-N-methylphenylsulfonamido)methyl)phenoxyacetic acid]
16 | > 7.00 | CN(Cc1cc(-c2cccc(C#N)c2)c(OCC(=O)O)cc1F)S(=O)(=O)c1ccc(F)cc1 [Example 77, 2-(3-cyanophenyl)-4-((4-fluoro-N-methylphenylsulfonamido)methyl)-5-fluorophenoxyacetic acid]
17 | 5.00 to 6.00 | CN(Cc1ccc(OCC(=O)O)c(-c2cc(F)ccc2F)c1)S(=O)(=O)c1ccccc1 [Example 166, 2-(2,5-difluorophenyl)-4-((N-methylphenylsulfonamido)methyl)phenoxyacetic acid]
18 | > 7.00 | CN(Cc1ccc(OCC(=O)O)c(-c2cccc(C(F)(F)F)c2)c1)S(=O)(=O)c1ccc(F)c(F)c1 [Example 91, 2-(3-trifluoromethylphenyl)-4-((3,4-difluoro-N-methylphenylsulfonamido)methyl)phenoxyacetic acid]
19 | > 7.00 | CN(Cc1ccc(OCC(=O)O)c(-c2cccc(C#N)c2)c1)S(=O)(=O)c1cccc(F)c1 [Example 89, 2-(3-cyanophenyl)-4-((3-fluoro-N-methylphenylsulfonamido)methyl)phenoxyacetic acid]
20 | > 7.00 | CN(Cc1ccc(OCC(=O)O)c(-c2ccc3nonc3c2)c1)S(=O)(=O)c1ccc(F)cc1 [Example 187, 2-(5-benzo[c][1,2,5]oxadiazolyl)-4-((4-fluoro-N-methylphenylsulfonamido)methyl)phenoxyacetic acid]

Row | pIC50 | Structure (SMILES)
21 | > 7.00 | CN(Cc1ccc(OCC(=O)O)c(-c2cccc(C#N)c2)c1)S(=O)(=O)c1cc(F)cc(F)c1 [Example 97, 2-(3-cyanophenyl)-4-((3,5-difluoro-N-methylphenylsulfonamido)methyl)phenoxyacetic acid]
22 | 6.00 to 7.00 | CN(Cc1ccc(OCC(=O)O)c(-c2cccc(C(N)=O)c2)c1)S(=O)(=O)c1ccc(F)cc1 [Example 105, 2-(3-aminocarbonylphenyl)-4-((4-fluoro-N-methylphenylsulfonamido)methyl)phenoxyacetic acid]
23 | 6.00 to 7.00 | CN(C)C(=O)c1cccc(-c2cc(CN(C)S(=O)(=O)c3ccc(F)cc3)ccc2OCC(=O)O)c1 [Example 138, 2-(3-dimethylaminocarbonylphenyl)-4-((4-fluoro-N-methylphenylsulfonamido)methyl)phenoxyacetic acid]
24 | > 7.00 | CN(Cc1ccc(OCC(=O)O)c(-c2cccc(S(C)(=O)=O)c2)c1)S(=O)(=O)c1cccc(C#N)c1 [Example 88, 2-(3-methylsulfonylphenyl)-4-((3-cyano-N-methylphenylsulfonamido)methyl)phenoxyacetic acid]
25 | 5.00 to 6.00 | CN(Cc1ccc(OCC(=O)O)c(-c2ccc(F)c(Cl)c2)c1)S(=O)(=O)c1ccc(F)cc1 [Example 157, 2-(3-chloro-4-fluorophenyl)-4-((4-fluoro-N-methylphenylsulfonamido)methyl)phenoxyacetic acid]
26 | 6.00 to 7.00 | CN(Cc1ccc(OCC(=O)O)c(-c2ccc(S(C)(=O)=O)cc2)c1)S(=O)(=O)c1ccc(F)cc1 [Example 124, 2-(4-methylsulfonylphenyl)-4-((4-fluoro-N-methylphenylsulfonamido)methyl)phenoxyacetic acid]
27 | 6.00 to 7.00 | C[C@H](Oc1ccc(CN(C)S(=O)(=O)c2ccc(F)cc2)cc1-c1cccc(C(F)(F)F)c1)C(=O)O [Example 36, (S)-2-(2-(3-trifluoromethylphenyl)-4-((4-fluoro-N-methylphenylsulfonamido)methyl)phenoxy)propanoic acid]
28 | 5.00 to 6.00 | CC(C)N(Cc1ccc(OCC(=O)O)c(-c2cccc(C(F)(F)F)c2)c1)S(=O)(=O)c1ccc(F)cc1 [Example 158, 2-(3-trifluoromethylphenyl)-4-((4-fluoro-N-isopropylphenylsulfonamido)methyl)phenoxyacetic acid]
29 | > 7.00 | COc1cc(F)cc(-c2cc(CN(C)S(=O)(=O)c3ccc(F)c(F)c3)ccc2OCC(=O)O)c1 [Example 46, 2-(3-fluoro-5-methoxyphenyl)-4-((3,4-difluoro-N-methylphenylsulfonamido)methyl)phenoxyacetic acid]
30 | > 7.00 | CN(Cc1ccc(OCC(=O)O)c(-c2cc(F)cc(F)c2)c1)S(=O)(=O)c1ccc(Cl)c(Cl)c1 [Example 51, 2-(3,5-difluorophenyl)-4-((3,4-dichloro-N-methylphenylsulfonamido)methyl)phenoxyacetic acid]
31 | 5.00 to 6.00 | CN(Cc1ccc(OCC(=O)O)c(-c2cnn(C)c2)c1)S(=O)(=O)c1ccc(F)cc1 [Example 186, 2-(1-methyl-1H-pyrazol-4-yl)-4-((4-fluoro-N-methylphenylsulfonamido)methyl)phenoxyacetic acid]
32 | 6.00 to 7.00 | CN(Cc1ccc(OCC(=O)O)c(-c2cccc(C(F)(F)F)n2)c1)S(=O)(=O)c1ccc(F)cc1 [Example 127, 2-(6-trifluoromethyl-2-pyridinyl)-4-((4-fluoro-N-methylphenylsulfonamido)methyl)phenoxyacetic acid]
33 | > 7.00 | CN(Cc1ccc(OCC(=O)O)c(-c2cccc(S(N)(=O)=O)c2)c1)S(=O)(=O)c1ccc(F)cc1 [Example 52, 2-(3-aminosulfonylphenyl)-4-((4-fluoro-N-methylphenylsulfonamido)methyl)phenoxyacetic acid]
34 | 6.00 to 7.00 | CN(Cc1ccc(OCC(=O)O)c(-c2cccc(OC(F)(F)F)c2)c1)S(=O)(=O)c1ccc(F)cc1 [Example 125, 2-(3-trifluoromethoxyphenyl)-4-((4-fluoro-N-methylphenylsulfonamido)methyl)phenoxyacetic acid]
35 | 6.00 to 7.00 | CN(Cc1ccc(OCC(=O)O)c(-c2cccc(Br)c2)c1)S(=O)(=O)c1ccc(F)cc1 [Example 142, 2-(3-bromophenyl)-4-((4-fluoro-N-methylphenylsulfonamido)methyl)phenoxyacetic acid]
36 | > 7.00 | CCS(=O)(=O)c1cccc(-c2cc(CN(C)S(=O)(=O)c3ccc(F)cc3)ccc2OCC(=O)O)c1 [Example 83, 2-(3-ethylsulfonylphenyl)-4-((4-fluoro-N-methylphenylsulfonamido)methyl)phenoxyacetic acid]
